# Experimental data from US10167262B2, “Herbicidal substituted 3-arylpyrazoles” (FMC CORPORATION, priority 2014, dated 2019).
# Tests used:
# Assay in all cases: Test C pre-/postemergence greenhouse test, plant response rating 0-100;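 on Plant response rating (0 to 100), Blackgrass: 0 is no effect and 100 is complete control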;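 on Plant response rating (0 to 100), Ragweed: 0 is no effect and 100 is complete control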;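 on Plant response rating, Blackgrass: 0 is no effect and 100 is complete control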;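 on Plant response rating, Ragweed: 0 is no effect and 100 is complete control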
# Assay type in all cases: in vivo
# [1] = tested on: Italian ryegrass (Lolium multiflorum); settings: Postemergence; for Plant response rating, Ryegrass, Italian: scale 0 to 100
# Summary of the method: (§1)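 After treatment, pots stay in the greenhouse 13–15 days before each species is compared with untreated controls and given a 0–100 visual score. Preemergence seeds are in loam blended with sand; postemergence plants, 1–4 leaves, are in peat-based medium.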
# [2] = tested on: blackgrass (Alopecurus myosuroides); settings: Postemergence; for Plant response rating (0 to 100), Blackgrass: 62 g ai/ha; for Plant response rating, Blackgrass: scale 0 to 100;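 on all read-outs here: 0 is no effect and 100 is complete control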
# Summary of the method: as §1
# [3] = tested on: corn (Zea mays); settings: Postemergence; for Plant response rating, Corn: scale 0 to 100
# Summary of the method: as §1
# [4] = tested on: giant foxtail (Setaria faberii); settings: Postemergence; for Plant response rating, Foxtail, Giant: scale 0 to 100
# Summary of the method: as §1
# [5] = tested on: johnsongrass (Sorghum halepense); settings: Postemergence; for Plant response rating, Johnsongrass: scale 0 to 100
# Summary of the method: as §1
# [6] = tested on: lambsquarters (Chenopodium album); settings: Postemergence; for Plant response rating, Lambsquarters: scale 0 to 100
# Summary of the method: as §1
# [7] = tested on: large (Lg) crabgrass (Digitaria sanguinalis); settings: Postemergence; for Plant response rating, Crabgrass, Large: scale 0 to 100
# Summary of the method: as §1
# [8] = tested on: pigweed (Amaranthus retroflexus); settings: Postemergence; for Plant response rating, Pigweed: scale 0 to 100
# Summary of the method: as §1
# [9] = tested on: ragweed (common ragweed, Ambrosia elatior); settings: Postemergence; for Plant response rating, Ragweed: scale 0 to 100;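 on all read-outs here: 0 is no effect and 100 is complete control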
# Summary of the method: as §1
# [10] = tested on: soybean (Glycine max); settings: Postemergence; for Plant response rating, Soybean: scale 0 to 100
# Summary of the method: as §1
# [11] = tested on: velvetleaf (Abutilon theophrasti); settings: Postemergence; for Plant response rating, Velvetleaf: scale 0 to 100
# Summary of the method: as §1
# [12] = tested on: winter wheat (Triticum aestivum); settings: Postemergence; for Plant response rating, Wheat: scale 0 to 100
# Summary of the method: as §1
# [13] = tested on: yellow nutsedge (Cyperus esculentus); settings: Postemergence; for Plant response rating, Nutsedge, Yellow: scale 0 to 100
# Summary of the method: as §1
structure (smiles),measurement,setting,value
Cn1cc(C(=O)c2cccs2)c(-c2cc(Cl)cc(Cl)c2)n1 [Compound 17],"Plant response rating (0 to 100), Ryegrass, Italian",[1]; 62 g ai/ha,0
same,"Plant response rating (0 to 100), Ryegrass, Italian",[1]; 125 g ai/ha,0
same,"Plant response rating, Ryegrass, Italian",[1]; 250 g ai/ha,0
same,"Plant response rating, Ryegrass, Italian",[1]; 500 g ai/ha,5
same,"Plant response rating (0 to 100), Blackgrass",[2],0
same,"Plant response rating, Blackgrass",[2]; 125 g ai/ha,0
same,"Plant response rating, Blackgrass",[2]; 250 g ai/ha,0
same,"Plant response rating, Blackgrass",[2]; 500 g ai/ha,5
same,"Plant response rating, Corn",[3]; 500 g ai/ha,10
same,"Plant response rating (0 to 100), Foxtail, Giant",[4]; 62 g ai/ha,0
same,"Plant response rating (0 to 100), Foxtail, Giant",[4]; 125 g ai/ha,0
same,"Plant response rating, Foxtail, Giant",[4]; 250 g ai/ha,5
same,"Plant response rating, Foxtail, Giant",[4]; 500 g ai/ha,10
same,"Plant response rating (0 to 100), Johnsongrass",[5]; 62 g ai/ha,0
same,"Plant response rating (0 to 100), Johnsongrass",[5]; 125 g ai/ha,0
same,"Plant response rating, Johnsongrass",[5]; 250 g ai/ha,10
same,"Plant response rating, Johnsongrass",[5]; 500 g ai/ha,15
same,"Plant response rating (0 to 100), Lambsquarters",[6]; 62 g ai/ha,15
same,"Plant response rating (0 to 100), Lambsquarters",[6]; 125 g ai/ha,55
same,"Plant response rating, Lambsquarters",[6]; 250 g ai/ha,80
same,"Plant response rating, Lambsquarters",[6]; 500 g ai/ha,98
same,"Plant response rating (0 to 100), Crabgrass, Large",[7]; 62 g ai/ha,0
same,"Plant response rating (0 to 100), Crabgrass, Large",[7]; 125 g ai/ha,5
same,"Plant response rating, Crabgrass, Large",[7]; 250 g ai/ha,10
same,"Plant response rating, Crabgrass, Large",[7]; 500 g ai/ha,15
same,"Plant response rating (0 to 100), Pigweed",[8]; 62 g ai/ha,75
same,"Plant response rating (0 to 100), Pigweed",[8]; 125 g ai/ha,80
same,"Plant response rating, Pigweed",[8]; 500 g ai/ha,85
same,"Plant response rating (0 to 100), Ragweed",[9]; 62 g ai/ha,0
same,"Plant response rating (0 to 100), Ragweed",[9]; 125 g ai/ha,10
same,"Plant response rating, Ragweed",[9]; 250 g ai/ha,10
same,"Plant response rating, Ragweed",[9]; 500 g ai/ha,10
same,"Plant response rating (0 to 100), Soybean",[10]; 62 g ai/ha,0
same,"Plant response rating (0 to 100), Soybean",[10]; 125 g ai/ha,0
same,"Plant response rating, Soybean",[10]; 250 g ai/ha,10
same,"Plant response rating, Soybean",[10]; 500 g ai/ha,15
same,"Plant response rating (0 to 100), Velvetleaf",[11]; 62 g ai/ha,80
same,"Plant response rating (0 to 100), Velvetleaf",[11]; 125 g ai/ha,80
same,"Plant response rating, Velvetleaf",[11]; 250 g ai/ha,80
same,"Plant response rating, Velvetleaf",[11]; 500 g ai/ha,80
same,"Plant response rating (0 to 100), Wheat",[12]; 62 g ai/ha,0
same,"Plant response rating (0 to 100), Wheat",[12]; 125 g ai/ha,0
same,"Plant response rating, Wheat",[12]; 250 g ai/ha,0
same,"Plant response rating, Wheat",[12]; 500 g ai/ha,0
same,"Plant response rating (0 to 100), Nutsedge, Yellow",[13]; 62 g ai/ha,0
same,"Plant response rating (0 to 100), Nutsedge, Yellow",[13]; 125 g ai/ha,5
same,"Plant response rating, Nutsedge, Yellow",[13]; 250 g ai/ha,5
same,"Plant response rating, Nutsedge, Yellow",[13]; 500 g ai/ha,5
CCn1cc(C(=O)c2cccs2)c(-c2cc(Cl)cc(Cl)c2)n1 [Compound 18],"Plant response rating (0 to 100), Ryegrass, Italian",[1]; 62 g ai/ha,0
same,"Plant response rating (0 to 100), Ryegrass, Italian",[1]; 125 g ai/ha,0
same,"Plant response rating, Ryegrass, Italian",[1]; 250 g ai/ha,0
same,"Plant response rating, Ryegrass, Italian",[1]; 500 g ai/ha,5
same,"Plant response rating (0 to 100), Blackgrass",[2],0
same,"Plant response rating, Blackgrass",[2]; 125 g ai/ha,0
same,"Plant response rating, Blackgrass",[2]; 250 g ai/ha,0
same,"Plant response rating, Blackgrass",[2]; 500 g ai/ha,0
same,"Plant response rating (0 to 100), Corn",[3]; 125 g ai/ha,5
same,"Plant response rating, Corn",[3]; 250 g ai/ha,10
same,"Plant response rating (0 to 100), Foxtail, Giant",[4]; 62 g ai/ha,5
same,"Plant response rating (0 to 100), Foxtail, Giant",[4]; 125 g ai/ha,10
same,"Plant response rating, Foxtail, Giant",[4]; 250 g ai/ha,15
same,"Plant response rating, Foxtail, Giant",[4]; 500 g ai/ha,20
same,"Plant response rating (0 to 100), Johnsongrass",[5]; 62 g ai/ha,0
same,"Plant response rating, Johnsongrass",[5]; 250 g ai/ha,0
same,"Plant response rating, Johnsongrass",[5]; 500 g ai/ha,5
same,"Plant response rating (0 to 100), Lambsquarters",[6]; 62 g ai/ha,60
same,"Plant response rating (0 to 100), Lambsquarters",[6]; 125 g ai/ha,85
same,"Plant response rating, Lambsquarters",[6]; 250 g ai/ha,85
same,"Plant response rating, Lambsquarters",[6]; 500 g ai/ha,90
same,"Plant response rating (0 to 100), Crabgrass, Large",[7]; 62 g ai/ha,5
same,"Plant response rating (0 to 100), Crabgrass, Large",[7]; 125 g ai/ha,5
same,"Plant response rating, Crabgrass, Large",[7]; 250 g ai/ha,15
same,"Plant response rating, Crabgrass, Large",[7]; 500 g ai/ha,20
same,"Plant response rating (0 to 100), Pigweed",[8]; 62 g ai/ha,85
same,"Plant response rating (0 to 100), Pigweed",[8]; 125 g ai/ha,100
same,"Plant response rating, Pigweed",[8]; 250 g ai/ha,100
same,"Plant response rating, Pigweed",[8]; 500 g ai/ha,100
same,"Plant response rating (0 to 100), Ragweed",[9]; 125 g ai/ha,10
same,"Plant response rating, Ragweed",[9]; 250 g ai/ha,15
same,"Plant response rating, Ragweed",[9]; 500 g ai/ha,25
same,"Plant response rating (0 to 100), Soybean",[10]; 62 g ai/ha,5
same,"Plant response rating (0 to 100), Soybean",[10]; 125 g ai/ha,15
same,"Plant response rating, Soybean",[10]; 250 g ai/ha,20
same,"Plant response rating, Soybean",[10]; 500 g ai/ha,20
same,"Plant response rating (0 to 100), Velvetleaf",[11]; 62 g ai/ha,50
same,"Plant response rating (0 to 100), Velvetleaf",[11]; 125 g ai/ha,65
same,"Plant response rating, Velvetleaf",[11]; 250 g ai/ha,70
same,"Plant response rating, Velvetleaf",[11]; 500 g ai/ha,80
same,"Plant response rating (0 to 100), Wheat",[12]; 62 g ai/ha,0
same,"Plant response rating (0 to 100), Wheat",[12]; 125 g ai/ha,0
same,"Plant response rating, Wheat",[12]; 250 g ai/ha,0
same,"Plant response rating, Wheat",[12]; 500 g ai/ha,5
same,"Plant response rating (0 to 100), Nutsedge, Yellow",[13]; 62 g ai/ha,0
same,"Plant response rating (0 to 100), Nutsedge, Yellow",[13]; 125 g ai/ha,0
same,"Plant response rating, Nutsedge, Yellow",[13]; 250 g ai/ha,5
same,"Plant response rating, Nutsedge, Yellow",[13]; 500 g ai/ha,5
